Eight compounds from ChEMBL document CHEMBL6182948 (J Med Chem, 2025) can be followed below.

Data set [1] deals with CYP2C9 (Homo sapiens, UniProt P11712). The experiment in a line: Inhibition of CYP2C9 in human liver microsome at 3 uM pre-incubated with compound for 5 mins followed NADPH addition and measured after 10 mins by LC-MS/MS analysis relative to control. The conditions noted are these: liver microsomes.
Data set [2] concerns the target CYP2D6 (Homo sapiens, UniProt P10635). The experiment in a line: Inhibition of CYP2D6 in human liver microsome at 3 uM pre-incubated with compound for 5 mins followed NADPH addition and measured after 10 mins by LC-MS/MS analysis relative to control. The conditions noted are these: liver microsomes.
The nature of data set [3]: Metabolic stability in liver microsome (unknown origin) assessed as intrinsic clearance at 0.5 mg/mL measured up to 60 mins by LC-MS/MS analysis. The data set is classed as ADME. The conditions noted are these: human, liver microsomes, read-out: CLH.
Data set [4] in a line: Metabolic stability in liver microsomes (unknown origin) assessed as half life at 0.5 mg/ml measured up to 60 mins by LC-MS/MS analysis. The format is ADME, Microsome. The conditions noted are these: human.
Data set [5] can be described thus: Stability in human plasma assessed as compound remaining at 100 uM measured after 15 mins by LC-MS/MS analysis. The data set is classed as ADME, cell-free. The conditions noted are these: read-out: Stability.
Data set [6] in a line: Stability in human plasma assessed as compound remaining at 100 uM measured after 60 mins by LC-MS/MS analysis. The format is ADME, cell-free. The conditions noted are these: read-out: Stability.
A short description of data set [7]: Stability in human plasma assessed as compound remaining at 100 uM measured after 120 mins by LC-MS/MS analysis. The format is ADME, cell-free. The following applies: read-out: Stability.
A short description of data set [8]: Stability in human plasma assessed as compound remaining at 100 uM measured after 5 mins by LC-MS/MS analysis. The format is ADME, cell-free. The following applies: read-out: Stability.
Data set [9] in a line: Stability in human plasma assessed as compound remaining at 100 uM measured after 30 mins by LC-MS/MS analysis. The format is ADME, cell-free. The conditions noted are these: read-out: Stability.
Data set [10] relates to A549/TR. Nature of the data set: Antiproliferative activity against human A549/Taxol cells assessed inhibition of cell viability incubated for 48 hrs by CCK-8 assay. The format is functional, cell-based.
A short description of data set [11]: Selectivity ratio of IC50 for antiproliferative activity against human A549/Taxol cells to IC50 for antiproliferative activity against human A549 cells. The format is functional.
The subject of data set [12] is A549. Nature of the data set: Antiproliferative against human A549 cells assessed as inhibition of cell viability incubated for 48 hrs by CCK-8 assay. The format is functional, cell-based. The conditions noted are these: A549, 48 h.
Data set [13] deals with CYP2C19 (Homo sapiens, UniProt P33261). Nature of the data set: Inhibition of CYP2C19 in human liver microsome at 3 uM pre-incubated with compound for 5 mins followed NADPH addition and measured after 30 mins by LC-MS/MS analysis relative to control. The data set is classed as ADME. The following applies: liver microsomes, time 35 min.
Data set [14] has as its target T1, CYP2C8 (Homo sapiens, UniProt P10632).
T1 sequence (P10632 whole entry): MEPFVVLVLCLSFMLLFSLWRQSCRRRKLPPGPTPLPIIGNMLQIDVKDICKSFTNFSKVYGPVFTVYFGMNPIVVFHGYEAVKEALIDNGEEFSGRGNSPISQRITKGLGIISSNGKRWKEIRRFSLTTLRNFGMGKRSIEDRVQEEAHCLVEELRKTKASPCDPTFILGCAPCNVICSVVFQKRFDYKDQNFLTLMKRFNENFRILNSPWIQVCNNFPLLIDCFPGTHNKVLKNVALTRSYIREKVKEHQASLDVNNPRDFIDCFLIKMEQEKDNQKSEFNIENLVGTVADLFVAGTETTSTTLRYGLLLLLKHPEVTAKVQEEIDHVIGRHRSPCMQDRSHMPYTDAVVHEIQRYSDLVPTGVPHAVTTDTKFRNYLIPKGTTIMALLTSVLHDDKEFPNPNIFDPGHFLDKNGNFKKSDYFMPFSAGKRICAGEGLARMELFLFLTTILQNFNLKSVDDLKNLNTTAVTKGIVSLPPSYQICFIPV
Nature of the data set: Inhibition of CYP2C8 in human liver microsome at 10 uM pre-incubated with compound for 5 mins followed NADPH addition and measured after 5 mins by LC-MS/MS analysis relative to control. The format is ADME. The following applies: liver microsomes, time 10 min.

Data set [15] in a line: Cytotoxicity against HUVEC assessed as inhibition of cell viability incubated for 48 hrs by CellTiter Glo assay. The following applies: human, HUVEC cells. The format is toxicity, cell-based.
For data set [16], the system named is A549/TR. The experiment in a line: Inhibition of cell invasion in human A549/Taxol cells assessed as invasive cells at 5 uM incubated for 24 hrs by transwell invasion assay relative to control. The data set is classed as functional. Also on record: scale not given: the % may be the effect or the level left.
Data set [17] in a line: Cytotoxicity against human BEAS-2B cells assessed as inhibition of cell viability incubated for 48 hrs by CCK-8 assay. The format is toxicity, cell-based.
The target of data set [18] is T2, Cytochrome P450 1A2 (Homo sapiens, UniProt P05177).
T2 sequence (P05177 whole entry): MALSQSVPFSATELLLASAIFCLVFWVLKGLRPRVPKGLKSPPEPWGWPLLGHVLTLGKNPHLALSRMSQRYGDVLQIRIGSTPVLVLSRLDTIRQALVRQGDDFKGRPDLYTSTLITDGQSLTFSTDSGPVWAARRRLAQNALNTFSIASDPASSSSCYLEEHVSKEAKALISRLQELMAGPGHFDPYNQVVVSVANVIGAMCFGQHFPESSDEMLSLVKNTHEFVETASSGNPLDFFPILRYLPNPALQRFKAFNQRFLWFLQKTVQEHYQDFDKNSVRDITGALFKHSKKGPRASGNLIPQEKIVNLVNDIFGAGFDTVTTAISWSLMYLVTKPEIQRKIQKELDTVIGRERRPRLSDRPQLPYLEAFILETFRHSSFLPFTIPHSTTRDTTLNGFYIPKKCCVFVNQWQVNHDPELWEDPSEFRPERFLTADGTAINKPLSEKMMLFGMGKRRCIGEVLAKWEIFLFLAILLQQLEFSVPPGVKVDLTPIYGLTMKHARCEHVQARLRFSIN
The experiment in a line: Inhibition of human recombinant CYP1A2 using 7-ethoxyresorufin as substrate incubated under dark condition for 45 mins in presence of NADPH by EROD fluorescence assay. The data set is classed as ADME.

The subject of data set [19] is A549/TR. Nature of the data set: Inhibition of cell migration in human A549/Taxol cells assessed as wound closure at 5 uM measured after 24 hrs by scratch-wound healing assay relative to control. The format is functional. Set-up: scale not given: the % may be the effect or the level left.
For data set [20], the target named is T3, CYP1B1 (Homo sapiens, UniProt Q16678).
T3 sequence (Q16678 whole entry): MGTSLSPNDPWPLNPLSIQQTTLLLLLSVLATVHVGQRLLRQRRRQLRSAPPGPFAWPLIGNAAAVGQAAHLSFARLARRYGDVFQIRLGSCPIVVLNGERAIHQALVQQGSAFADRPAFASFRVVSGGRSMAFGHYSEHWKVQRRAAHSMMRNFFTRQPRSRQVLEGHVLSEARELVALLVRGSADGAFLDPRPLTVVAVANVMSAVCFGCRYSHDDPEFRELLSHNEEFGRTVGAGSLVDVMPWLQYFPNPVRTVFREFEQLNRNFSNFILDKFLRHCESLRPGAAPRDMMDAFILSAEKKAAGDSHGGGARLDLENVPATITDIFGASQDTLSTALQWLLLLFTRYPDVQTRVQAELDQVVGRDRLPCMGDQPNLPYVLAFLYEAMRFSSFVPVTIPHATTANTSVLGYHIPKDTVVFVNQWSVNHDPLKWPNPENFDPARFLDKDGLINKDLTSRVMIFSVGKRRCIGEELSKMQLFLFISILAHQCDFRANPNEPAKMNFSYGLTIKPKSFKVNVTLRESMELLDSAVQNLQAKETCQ
Nature of the data set: Inhibition of human recombinant CYP1B1 using 7-ethoxyresorufin as substrate at 100 uM incubated under dark condition for 30 mins in presence of NADPH by EROD fluorescence assay relative to control. The data set is classed as ADME. The following applies: recombinant CYP1B1, probe 7-ethoxyresorufin.

pIC50: −log10 of the molar value.

Chain of CYP2C9 (P11712 whole entry): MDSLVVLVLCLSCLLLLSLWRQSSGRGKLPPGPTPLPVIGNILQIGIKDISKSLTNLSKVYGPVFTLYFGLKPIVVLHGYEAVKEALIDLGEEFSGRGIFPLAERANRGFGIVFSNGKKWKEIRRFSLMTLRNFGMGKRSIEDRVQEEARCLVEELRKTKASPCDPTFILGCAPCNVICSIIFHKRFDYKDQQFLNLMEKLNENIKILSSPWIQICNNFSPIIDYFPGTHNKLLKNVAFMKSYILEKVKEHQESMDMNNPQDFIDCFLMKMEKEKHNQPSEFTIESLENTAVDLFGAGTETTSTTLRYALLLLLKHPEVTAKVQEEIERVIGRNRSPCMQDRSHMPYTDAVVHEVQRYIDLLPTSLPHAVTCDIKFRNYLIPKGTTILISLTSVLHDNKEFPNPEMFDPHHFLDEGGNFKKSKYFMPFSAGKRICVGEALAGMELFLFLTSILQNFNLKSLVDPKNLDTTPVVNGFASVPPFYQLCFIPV
Chain of CYP2D6 (P10635 whole entry): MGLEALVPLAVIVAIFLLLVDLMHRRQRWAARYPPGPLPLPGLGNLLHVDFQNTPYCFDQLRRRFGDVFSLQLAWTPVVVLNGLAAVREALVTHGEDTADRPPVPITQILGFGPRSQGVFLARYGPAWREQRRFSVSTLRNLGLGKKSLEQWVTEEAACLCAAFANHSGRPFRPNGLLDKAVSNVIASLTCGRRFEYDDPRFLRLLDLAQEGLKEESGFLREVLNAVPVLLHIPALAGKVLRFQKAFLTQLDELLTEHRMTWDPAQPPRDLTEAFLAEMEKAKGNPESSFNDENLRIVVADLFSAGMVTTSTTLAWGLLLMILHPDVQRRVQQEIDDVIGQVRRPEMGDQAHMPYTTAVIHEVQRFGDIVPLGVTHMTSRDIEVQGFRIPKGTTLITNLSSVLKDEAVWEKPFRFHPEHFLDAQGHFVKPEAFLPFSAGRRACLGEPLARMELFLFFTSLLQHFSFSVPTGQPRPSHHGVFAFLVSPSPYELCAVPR
Chain of CYP2C19 (P33261 whole entry): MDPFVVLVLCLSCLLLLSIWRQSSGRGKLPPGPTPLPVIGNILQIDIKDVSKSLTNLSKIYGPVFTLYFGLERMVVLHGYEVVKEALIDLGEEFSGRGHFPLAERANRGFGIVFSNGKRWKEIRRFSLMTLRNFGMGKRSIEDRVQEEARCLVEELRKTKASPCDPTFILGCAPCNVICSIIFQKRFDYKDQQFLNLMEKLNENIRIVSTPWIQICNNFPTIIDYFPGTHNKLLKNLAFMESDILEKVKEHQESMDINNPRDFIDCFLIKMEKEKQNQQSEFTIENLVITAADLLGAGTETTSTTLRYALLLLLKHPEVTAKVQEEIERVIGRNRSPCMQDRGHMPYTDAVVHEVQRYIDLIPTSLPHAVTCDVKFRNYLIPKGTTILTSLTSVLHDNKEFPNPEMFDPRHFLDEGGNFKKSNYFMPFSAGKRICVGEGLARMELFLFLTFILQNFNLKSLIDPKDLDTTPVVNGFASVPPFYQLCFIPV

Regarding `Nc1ccc(S(=O)(=O)Nc2ccnn2-c2ccccc2)cc1` [SULFAPHENAZOLE], the inhibition at 10 min, 3 µM in [1] is 79%.

For the compound `C=C[C@H]1C[N@@]2CC[C@H]1C[C@@H]2[C@@H](O)c1ccnc2ccc(OC)cc12` [QUINIDINE], in data set [2], the inhibition at 10 min, 3 µM was determined as 89.3%.

As for `O=C(O)Cc1ccccc1Nc1c(Cl)cccc1Cl` [DICLOFENAC], the CLint scaled in data set [3] was 226 mL/min/kg. The half-life in data set [4] was determined as 5.5 min.

For the compound `CC(C)[N+](C)(CCOC(=O)C1c2ccccc2Oc2ccccc21)C(C)C` [PROPANTHELINE BROMIDE], the remaining at 0.25 h, 100 µM in data set [5] is 66.5%. In [6], the remaining at 1 h, 100 µM is 11.6%. Further, in data set [7], the remaining at 2 h, 100 µM turned out to be 1.7%. Besides, the remaining at 5 min, 100 µM in data set [8] worked out at 90.7%. The remaining at 0.5 h, 100 µM in data set [9] came to 41.3%.

`CC(=O)O[C@H]1C(=O)[C@@]2(C)[C@H]([C@H](OC(=O)c3ccccc3)[C@]3(O)C[C@H](OC(=O)[C@H](O)[C@@H](NC(=O)c4ccccc4)c4ccccc4)C(C)=C1C3(C)C)[C@]1(OC(C)=O)CO[C@@H]1C[C@@H]2O` [PACLITAXEL]: the pIC50 in data set [10] is 5.08; in data set [12], 7.50. Further, in [11], the “Ratio IC50” value came to 263.8.

On to `CCC1(c2ccccc2)NC(=O)N(Cc2ccccc2)C1=O` (stereo unspecified), for which the inhibition at 0.5 h, 3 µM in data set [13] is 89.8%.

Turning to `O=c1c(O)c(-c2ccc(O)c(O)c2)oc2cc(O)cc(O)c12` [QUERCETIN], the inhibition at 5 min, 10 µM in data set [14] is 77.2%.

For `COc1cc(/C=C/c2ccc(OC)cc2OC)cc(OC)c1`, the IC50 at 48 h in [15] is > 40 µM; in data set [17] it was 2.9 µM. The figures for the Activity in data set [16] and in data set [19] were 40.2% and 12.6%, respectively. Besides, the pIC50 in [18] is 5.71; in data set [12], 5.10. The inhibition at 0.5 h, 100 µM in data set [20] was determined as 103%.
